Measured values reported in PubChem BioAssay AID248 (DTP/NCI, 2004).
Where “and” joins values, the source holds several entries; their conditions need not be identical. Identical values can stand only once. Inconclusive results and toxic doses are left out.

System: L1210 leukemia ip in BDF1 mice, survival T/C
Assay: NCI In Vivo Anticancer Drug Screen. Data for tumor model L1210 Leukemia (intraperitoneal) in B6D2F1 (BDF1) mice
Details: endpoint: mean survival time, higher = longer survival
How it was run: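 Mice bearing the transplanted tumor received compound or vehicle. Survival of the treated group was divided by that of the vehicle-treated control group to give the ratio.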

[1] = dose: 100.0 mg/kg/injection, schedule: Q01DX009 (ip), vehicle: Klucel (hydroxypropylcellulose) (HPC)
[2] = dose: 200.0 mg/kg/injection, schedule: Q01DX009 (ip), vehicle: Klucel (hydroxypropylcellulose) (HPC)
[3] = dose: 400.0 mg/kg/injection, schedule: Q01DX009 (ip), vehicle: Klucel (hydroxypropylcellulose) (HPC)
[4] = dose: 100.0 mg/kg/injection, schedule: Q04DX003 (ip), vehicle: Klucel (hydroxypropylcellulose) (HPC)
[5] = dose: 200.0 mg/kg/injection, schedule: Q04DX003 (ip), vehicle: Klucel (hydroxypropylcellulose) (HPC)
[6] = dose: 400.0 mg/kg/injection, schedule: Q04DX003 (ip), vehicle: Klucel (hydroxypropylcellulose) (HPC)
[7] = dose: 50.0 mg/kg/injection, schedule: Q01DX001 (ip), vehicle: saline
[8] = dose: 100.0 mg/kg/injection, schedule: Q01DX001 (ip), vehicle: saline
[9] = dose: 200.0 mg/kg/injection, schedule: Q01DX001 (ip), vehicle: saline
[10] = dose: 400.0 mg/kg/injection, schedule: Q01DX001 (ip), vehicle: saline
[11] = dose: 100.0 mg/kg/injection, schedule: Q01DX009 (ip), vehicle: saline
[12] = dose: 100.0 mg/kg/injection, schedule: Q04DX003 (ip), vehicle: saline
[13] = dose: 200.0 mg/kg/injection, schedule: Q04DX003 (ip), vehicle: saline
[14] = dose: 400.0 mg/kg/injection, schedule: Q04DX003 (ip), vehicle: saline
[15] = dose: 100.0 mg/kg/injection, schedule: Q04DX003 (ip), vehicle: saline with Tween-80
[16] = dose: 200.0 mg/kg/injection, schedule: Q04DX003 (ip), vehicle: saline with Tween-80
[17] = dose: 400.0 mg/kg/injection, schedule: Q04DX003 (ip), vehicle: saline with Tween-80
[18] = dose: 200.0 mg/kg/injection, schedule: Q01DX009 (ip), vehicle: saline with Tween-80
[19] = dose: 400.0 mg/kg/injection, schedule: Q01DX009 (ip), vehicle: saline with Tween-80
[20] = dose: 50.0 mg/kg/injection, schedule: Q01DX001 (ip), vehicle: carboxymethylcellulose (CMC)
[21] = dose: 200.0 mg/kg/injection, schedule: Q01DX009 (ip), vehicle: saline
[22] = dose: 25.0 mg/kg/injection, schedule: Q04DX003 (ip), vehicle: saline with Tween-80

CC(C)(C)c1cccc(S(=O)(=O)Oc2ccccc2[N+](=O)[O-])c1
T/C [1]: 103 % of control | T/C [2]: 93 % of control | T/C [3]: 95 % of control

Cc1ccc(S(=O)(=O)OCC2C(c3ccccc3)CCC(c3ccccc3)C2COS(=O)(=O)c2ccc(C)cc2)cc1 (configuration not stated)
T/C [1]: 90 % of control | T/C [4]: 103 % of control | T/C [2]: 94 % of control | T/C [5]: 105 % of control | T/C [6]: 100 % of control

Cn1nc2c(N)ncnc2c1C1OC(CO)C(O)C1O (configuration not stated)
T/C (dose: 100.0 mg/kg/injection, schedule: Q01DX005 (ip), vehicle: saline): 116 % of control | T/C (dose: 200.0 mg/kg/injection, schedule: Q01DX005 (ip), vehicle: saline): 106 % of control

O=C1NC(=O)C(c2cccc(O)c2)N1 (configuration not stated)
T/C [7]: 100 % of control | T/C [8]: 100 % of control | T/C [9]: 100 % of control | T/C [10]: 100 % of control

Cc1cc(=O)[nH]c(=O)n1C1OC(CO)C(O)C1O (configuration not stated)
T/C [8]: 108 % of control | T/C [9]: 102 % of control | T/C [10]: 98 % of control

CCN(CC)CCNc1ccc(CO)c2oc3cc(Cl)ccc3c(=O)c12
T/C (dose: 31.25 mg/kg/injection, schedule: Q01DX009 (ip), vehicle: Klucel (hydroxypropylcellulose) (HPC)): 94 % of control | T/C (dose: 62.5 mg/kg/injection, schedule: Q01DX009 (ip), vehicle: Klucel (hydroxypropylcellulose) (HPC)): 100 % of control | T/C (dose: 125.0 mg/kg/injection, schedule: Q01DX009 (ip), vehicle: Klucel (hydroxypropylcellulose) (HPC)): 96 % of control

Nn1cnnc1
T/C (dose: 25.0 mg/kg/injection, schedule: Q01DX009 (ip), vehicle: saline): 93 % of control | T/C (dose: 50.0 mg/kg/injection, schedule: Q01DX009 (ip), vehicle: saline): 103 % of control | T/C [11]: 86 % of control and 88 % of control | T/C [12]: 104 % of control | T/C [13]: 96 % of control | T/C [14]: 102 % of control

O=C1OC(OC(=O)c2ccccc2)C(Nc2ccccc2)=C1Br (configuration not stated)
T/C [15]: 91 % of control | T/C [16]: 87 % of control | T/C [17]: 94 % of control

CCCC(=O)OC(C(=O)OCC)c1ccccc1 (configuration not stated)
T/C (dose: 100.0 mg/kg/injection, schedule: Q01DX009 (ip), vehicle: saline with Tween-80): 98 % of control | T/C [18]: 106 % of control | T/C [19]: 96 % of control

CC(=O)N1CCCCC1
T/C [20]: 97 % of control | T/C (dose: 100.0 mg/kg/injection, schedule: Q01DX001 (ip), vehicle: carboxymethylcellulose (CMC)): 94 % of control | T/C [11]: 100 % of control | T/C (dose: 200.0 mg/kg/injection, schedule: Q01DX001 (ip), vehicle: carboxymethylcellulose (CMC)): 100 % of control | T/C [21]: 98 % of control

CC(=O)Nc1ccc(/C=N\NC(=O)Nc2ccccc2)cc1
T/C [1]: 90 % of control | T/C [2]: 90 % of control | T/C [3]: 91 % of control

CCOC(=O)c1cc2c3n(c1=O)CCCC3C(c1ccncc1)OC2=O (configuration not stated)
T/C (dose: 75.0 mg/kg/injection, schedule: Q04DX003 (ip), vehicle: saline): 95 % of control | T/C (dose: 150.0 mg/kg/injection, schedule: Q04DX003 (ip), vehicle: saline): 100 % of control | T/C (dose: 300.0 mg/kg/injection, schedule: Q04DX003 (ip), vehicle: saline): 95 % of control

C=CCC(CC)(C(=O)OCC)C(=O)OCC
T/C [11]: 107 % of control | T/C [12]: 102 % of control | T/C [21]: 98 % of control | T/C [13]: 113 % of control | T/C (dose: 400.0 mg/kg/injection, schedule: Q01DX009 (ip), vehicle: saline): 95 % of control | T/C [14]: 96 % of control

Cc1ccc(O)c(N=O)c1.[Co]
T/C [7]: 97 % of control | T/C [8]: 109 % of control | T/C [9]: 115 % of control

S=C=Nc1ccc(Cl)cc1
T/C [22]: 107 % of control | T/C (dose: 50.0 mg/kg/injection, schedule: Q04DX003 (ip), vehicle: saline with Tween-80): 96 % of control | T/C [15]: 95 % of control and 101 % of control

CC(=O)OC1(c2ccccc2)OC(=O)C(C)(C)c2ccccc21 (configuration not stated)
T/C (dose: 100.0 mg/kg/injection, schedule: Q01DX001 (ip), vehicle: saline with Tween-80): 94 % of control | T/C (dose: 200.0 mg/kg/injection, schedule: Q01DX001 (ip), vehicle: saline with Tween-80): 91 % of control

COc1ccc2c(c1)CCC1CC(=O)C=C21 (configuration not stated)
T/C (dose: 100.0 mg/kg/injection, schedule: Q01DX009 (ip), vehicle: saline sonified): 113 % of control | T/C (dose: 200.0 mg/kg/injection, schedule: Q01DX009 (ip), vehicle: saline sonified): 103 % of control | T/C (dose: 400.0 mg/kg/injection, schedule: Q01DX009 (ip), vehicle: saline sonified): 104 % of control

CC(C)(C)C(CCC(=O)O)CC(=O)O (configuration not stated)
T/C [18]: 90 % of control | T/C [19]: 89 % of control

O=C(Nc1cccnc1)c1ccccc1
T/C (dose: 6.25 mg/kg/injection, schedule: Q04DX003 (ip), vehicle: saline with Tween-80): 92 % of control | T/C (dose: 12.5 mg/kg/injection, schedule: Q04DX003 (ip), vehicle: saline with Tween-80): 97 % of control | T/C [22]: 99 % of control

CC(C)(N)CO
T/C [7]: 104 % of control | T/C [8]: 101 % of control | T/C (dose: 100.0 mg/kg/injection, schedule: Q04DX002 (ip), vehicle: saline): 100 % of control | T/C [12]: 106 % of control | T/C [9]: 104 % of control | T/C (dose: 200.0 mg/kg/injection, schedule: Q04DX002 (ip), vehicle: saline): 110 % of control | T/C [13]: 106 % of control | T/C [10]: 101 % of control | T/C (dose: 400.0 mg/kg/injection, schedule: Q04DX002 (ip), vehicle: saline): 100 % of control | T/C [14]: 105 % of control

C=CCN(C)N=Nc1ccccc1C(N)=O
T/C (dose: 88.0 mg/kg/injection, schedule: Q01DX009 (ip), vehicle: saline with Tween-80): 158 % of control | T/C (dose: 88.0 mg/kg/injection, schedule: Q04DX003 (ip), vehicle: saline with Tween-80): 122 % of control | T/C [15]: 116 % of control | T/C (dose: 133.0 mg/kg/injection, schedule: Q01DX009 (ip), vehicle: saline with Tween-80): 150 % of control | T/C (dose: 176.0 mg/kg/injection, schedule: Q01DX001 (ip), vehicle: saline with Tween-80): 109 % of control | T/C [18]: 95 % of control

CC(C)c1ccc(/C=N\NC(=O)N/N=C/c2ccc(C(C)C)cc2)cc1
T/C [4]: 93 % of control | T/C [5]: 88 % of control

O=C(O)c1ccc(CC2CC3CCC2C3)cc1 (configuration not stated)
T/C [15]: 93 % of control | T/C [16]: 91 % of control | T/C [17]: 88 % of control

COc1cc(N(CCCl)CCCl)c(OC)cc1C=Nc1ccc(-c2csc(Cc3ccccc3)n2)c(Cl)c1
T/C (dose: 12.5 mg/kg/injection, schedule: Q01DX001 (ip), vehicle: carboxymethylcellulose (CMC)): 115 % of control | T/C (dose: 25.0 mg/kg/injection, schedule: Q01DX001 (ip), vehicle: carboxymethylcellulose (CMC)): 105 % of control | T/C [20]: 108 % of control | T/C (dose: 88.0 mg/kg/injection, schedule: Q01DX001 (ip), vehicle: carboxymethylcellulose (CMC)): 115 % of control | T/C (dose: 88.0 mg/kg/injection, schedule: Q01DX009 (ip), vehicle: carboxymethylcellulose (CMC)): 110 % of control | T/C (dose: 133.0 mg/kg/injection, schedule: Q01DX009 (ip), vehicle: carboxymethylcellulose (CMC)): 94 % of control | T/C (dose: 150.0 mg/kg/injection, schedule: Q01DX001 (ip), vehicle: carboxymethylcellulose (CMC)): 153 % of control | T/C (dose: 300.0 mg/kg/injection, schedule: Q01DX001 (ip), vehicle: carboxymethylcellulose (CMC)): 176 % of control and 182 % of control

COC(=O)c1ccccc1C(=S)N1CCOCC1
T/C [4]: 97 % of control | T/C [5]: 96 % of control | T/C [6]: 94 % of control
